Test results as given in patent US5441941A, “1,2-dihydroellipticines with activity against CNS specific cancer” (The United States of America as represented by the …, priority 1993, dated 1995).

What was measured:
[1] = test system: OVCAR-3; assay: NCI in vitro screen, SRB percent growth, Ovarian Cancer
[2] = test system: SNB-75; assay: NCI in vitro screen, SRB percent growth, CNS Cancer
[3] = test system: UACC-257; assay: NCI in vitro screen, SRB percent growth, Melanoma
[4] = test system: CNS cancer cell lines; assay: NCI in vitro screen, overall result on CNS cancer cell lines; details: Tables I and II
[5] = test system: XF 498; assay: NCI in vitro screen, SRB percent growth, CNS Cancer
[6] = test system: EKVX; assay: cells; details: Homo sapiens
[7] = test system: LXFL 529; assay: cells; details: Homo sapiens
[8] = test system: MALME-3M; assay: NCI in vitro screen, SRB percent growth, Melanoma
[9] = test system: CAKI-1; assay: NCI in vitro screen, SRB percent growth, Renal Cancer
[10] = test system: SW-620; assay: cells; details: Homo sapiens
[11] = test system: RXF-631; assay: NCI in vitro screen, SRB percent growth, Renal Cancer
[12] = test system: U251; assay: NCI in vitro screen, SRB percent growth, CNS Cancer
[13] = test system: M14; assay: NCI in vitro screen, SRB percent growth, Melanoma
[14] = test system: M19-MEL; assay: NCI in vitro screen, SRB percent growth, Melanoma
[15] = test system: NCI-H460; assay: NCI in vitro screen, SRB percent growth, Non-Small Cell Lung Cancer
[16] = test system: SF-295; assay: NCI in vitro screen, SRB percent growth, CNS Cancer
[17] = test system: DLD-1; assay: cells; details: Homo sapiens
[18] = test system: DMS 114; assay: cells; details: Homo sapiens
[19] = Log10 Concentration -4.0, 100 µM
[20] = Log10 Concentration -7.0, 0.1 µM
[21] = LXFL 529, read-out: Percent Growth
[22] = SW-620, read-out: Percent Growth
[23] = DLD-1, read-out: Percent Growth

Cc1ccc2[nH]c3c(C)c4c(c(C)c3c2c1)CN(C)C=C4 [Formula XI]
Percent Growth [1, 19]: -91% | Percent Growth ([1]; Log10 Concentration -5.0): 5% | Percent Growth ([1]; Log10 Concentration -6.0, 1 µM): 76% | Percent Growth [1, 20]: 94% | Percent Growth ([1]; Log10 Concentration -8.0): 98% | TGI ([1]; PG=0): 11.3 µM | GI50 ([1]; PG=+50): 2.34 µM | CC50 ([1]; read-out: LC-50, PG=-50): 37.6 µM | Percent Growth [2, 19]: -97% | Percent Growth ([2]; Log10 Concentration -5.0): -72% | Percent Growth ([2]; Log10 Concentration -6.0, 1 µM): 20% | Percent Growth [2, 20]: 109% | Percent Growth ([2]; Log10 Concentration -8.0): 110% | TGI ([2]; PG=0): 1.66 µM | GI50 ([2]; PG=+50): 0.462 µM | CC50 ([2]; read-out: LC-50, PG=-50): 5.75 µM | Percent Growth [3, 19]: -87% | Percent Growth ([3]; Log10 Concentration -5.0): -8% | Percent Growth ([3]; Log10 Concentration -6.0, 1 µM): 86% | Percent Growth [3, 20]: 90% | Percent Growth ([3]; Log10 Concentration -8.0): 97% | TGI ([3]; PG=0): 8.23 µM | GI50 ([3]; PG=+50): 2.43 µM | CC50 ([3]; read-out: LC-50, PG=-50): 34.3 µM | effect against CNS cancer cell lines [4]: particularly effective against CNS cancer cell lines | Percent Growth [5, 19]: -57% | Percent Growth ([5]; Log10 Concentration -5.0): -33% | Percent Growth ([5]; Log10 Concentration -6.0, 1 µM): 46% | Percent Growth [5, 20]: 98% | Percent Growth ([5]; Log10 Concentration -8.0): 101% | TGI ([5]; PG=0): 3.84 µM | GI50 ([5]; PG=+50): 0.851 µM | CC50 ([5]; read-out: LC-50, PG=-50): 50.4 µM | GI50 [6]: 3.6 µM | activity at 0.01 µM ([6]; read-out: Percent Growth): 109% | activity at 0.1 µM ([6]; read-out: Percent Growth): 114% | activity at 1 µM ([6]; read-out: Percent Growth): 86% | activity at 10 µM ([6]; read-out: Percent Growth): 22% | activity at 100 µM ([6]; read-out: Percent Growth): -22% | IC (TGI) ([6]; read-out: TGI): 31.2 µM | GI50 ([7]; LXFL 529): 0.353 µM | CC50 ([7]; LXFL 529, read-out: LC-50): 9.23 µM | activity at 0.01 µM [7, 21]: 78% | activity at 0.1 µM [7, 21]: 68% | activity at 1 µM [7, 21]: 35% | activity at 10 µM [7, 21]: -53% | activity at 100 µM [7, 21]: -84% | IC (TGI) ([7]; LXFL 529, read-out: TGI): 2.51 µM | Percent Growth [8, 19]: -86% | Percent Growth ([8]; Log10 Concentration -5.0): -40% | Percent Growth ([8]; Log10 Concentration -6.0, 1 µM): 78% | Percent Growth [8, 20]: 115% | Percent Growth ([8]; Log10 Concentration -8.0): 113% | TGI ([8]; PG=0): 4.58 µM | GI50 ([8]; PG=+50): 1.72 µM | CC50 ([8]; read-out: LC-50, PG=-50): 16.4 µM | Percent Growth [9, 19]: -89% | Percent Growth ([9]; Log10 Concentration -6.0, 1 µM): 56% | Percent Growth [9, 20]: 106% | Percent Growth ([9]; Log10 Concentration -8.0): 116% | TGI ([9]; PG=0): 5.89 µM | GI50 ([9]; PG=+50): 1.21 µM | CC50 ([9]; read-out: LC-50, PG=-50): 28.8 µM | GI50 ([10]; SW-620): 0.279 µM | CC50 ([10]; SW-620, read-out: LC-50): 28.6 µM | activity at 0.01 µM [10, 22]: 89% | activity at 0.1 µM [10, 22]: 76% | activity at 1 µM [10, 22]: 18% | activity at 10 µM [10, 22]: -21% | activity at 100 µM [10, 22]: -85% | IC (TGI) ([10]; SW-620, read-out: TGI): 2.87 µM | Percent Growth [11, 19]: -78% | Percent Growth ([11]; Log10 Concentration -5.0): -8% | Percent Growth ([11]; Log10 Concentration -6.0, 1 µM): 30% | Percent Growth [11, 20]: 74% | Percent Growth ([11]; Log10 Concentration -8.0): 95% | TGI ([11]; PG=0): 6.25 µM | GI50 ([11]; PG=+50): 0.352 µM | CC50 ([11]; read-out: LC-50, PG=-50): 39.5 µM | Percent Growth ([12]; Log10 Concentration -5.0): -72% | Percent Growth ([12]; Log10 Concentration -6.0, 1 µM): 3% | Percent Growth [12, 20]: 89% | Percent Growth ([12]; Log10 Concentration -8.0): 99% | TGI ([12]; PG=0): 1.1 µM | GI50 ([12]; PG=+50): 0.286 µM | CC50 ([12]; read-out: LC-50, PG=-50): 5.12 µM | Percent Growth [13, 19]: -93% | Percent Growth ([13]; Log10 Concentration -5.0): 6% | Percent Growth ([13]; Log10 Concentration -6.0, 1 µM): 103% | Percent Growth [13, 20]: 94% | Percent Growth ([13]; Log10 Concentration -8.0): 106% | TGI ([13]; PG=0): 11.4 µM | GI50 ([13]; PG=+50): 3.52 µM | CC50 ([13]; read-out: LC-50, PG=-50): 36.8 µM | Percent Growth [14, 19]: -93% | Percent Growth ([14]; Log10 Concentration -5.0): -91% | Percent Growth ([14]; Log10 Concentration -6.0, 1 µM): 38% | Percent Growth [14, 20]: 93% | Percent Growth ([14]; Log10 Concentration -8.0): 94% | TGI ([14]; PG=0): 1.98 µM | GI50 ([14]; PG=+50): 0.605 µM | CC50 ([14]; read-out: LC-50, PG=-50): 4.83 µM | Percent Growth [15, 19]: -85% | Percent Growth ([15]; Log10 Concentration -5.0): 8% | Percent Growth ([15]; Log10 Concentration -6.0, 1 µM): 78% | Percent Growth [15, 20]: 91% | Percent Growth ([15]; Log10 Concentration -8.0): 99% | TGI ([15]; PG=0): 12.1 µM | GI50 ([15]; PG=+50): 2.51 µM | CC50 ([15]; read-out: LC-50, PG=-50): 42.1 µM | Percent Growth [16, 19]: -91% | Percent Growth ([16]; Log10 Concentration -5.0): -31% | Percent Growth ([16]; Log10 Concentration -6.0, 1 µM): 23% | Percent Growth [16, 20]: 87% | Percent Growth ([16]; Log10 Concentration -8.0): 92% | TGI ([16]; PG=0): 2.68 µM | GI50 ([16]; PG=+50): 0.381 µM | CC50 ([16]; read-out: LC-50, PG=-50): 20.7 µM | GI50 ([17]; DLD-1): 1.48 µM | CC50 ([17]; DLD-1, read-out: LC-50): 59 µM | activity at 0.01 µM [17, 23]: 102% | activity at 0.1 µM [17, 23]: 93% | activity at 1 µM [17, 23]: 58% | activity at 10 µM [17, 23]: 13% | activity at 100 µM [17, 23]: -69% | IC (TGI) ([17]; DLD-1, read-out: TGI): 14.5 µM | GI50 ([18]; DMS-114): 0.414 µM | IC (TGI) ([18]; DMS-114, read-out: TGI): 2.12 µM
